By IC50 is commonly meant the concentration that gives 50% inhibition.

This is an account of results in PubChem BioAssay AID1418 (Emory University Molecular Libraries Screening Center, 2008).

Molecules are shown by their SMILES. Activity calls are given as the source filed them. No rule for the calls is given here.

This assay deals with Induced myeloid leukemia cell differentiation protein Mcl-1 (Homo sapiens) (UniProt Q07820). Put plainly: blockers of Bid binding to Mcl-1 – biochemical, TR-FRET, dose response (AID 1418). The settings on record: Mcl-1/Bid peptide binding, TR-FRET (europium/Dy647), 2 hr. (In general: In TR-FRET formats the signal depends on donor and acceptor labels being close together.)
Sequence of Induced myeloid leukemia cell differentiation protein Mcl-1 (Homo sapiens) (Q07820 whole entry, looked up): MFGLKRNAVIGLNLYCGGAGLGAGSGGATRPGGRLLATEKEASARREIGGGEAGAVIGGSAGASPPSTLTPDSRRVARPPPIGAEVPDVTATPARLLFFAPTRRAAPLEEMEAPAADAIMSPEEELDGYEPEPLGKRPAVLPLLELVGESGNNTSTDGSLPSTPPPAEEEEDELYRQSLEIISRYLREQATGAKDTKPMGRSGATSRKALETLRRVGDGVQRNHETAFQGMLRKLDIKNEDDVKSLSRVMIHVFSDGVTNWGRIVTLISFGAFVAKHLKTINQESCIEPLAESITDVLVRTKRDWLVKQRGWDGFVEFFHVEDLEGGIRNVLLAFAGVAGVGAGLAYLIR
As to `O=[N+]([O-])c1cccc(S(=O)(=O)Nc2nc3ccccc3nc2Nc2cccc(S(=O)(=O)N3CCCCC3)c2)c1`, the IC50 result is “inactive”.

As to `O=C1CSC(c2cccnc2)N1c1ccc(Cl)cc1` (configuration not stated), the IC50 was > 54 µM (inactive).

`O=C(CC(C(=O)O)c1c[nH]c2ccccc12)c1ccccc1` (configuration not stated): the IC50 is > 54 µM (inactive).

Take `O=C(CNC(=O)c1ccc([N+](=O)[O-])cc1)N/N=C\c1ccc(OC(=O)c2ccccc2)cc1`: the IC50 is 11 µM.

With `Oc1c(Cl)cc(Cl)cc1Sc1cc(Cl)cc(Cl)c1O`, the half-inhibitory concentration (IC50) was 1.67 µM.

As to `Clc1cccc(Cl)c1CON/C=N/c1ncnc2sccc12`, the IC50 is > 54 µM (inactive).

As to `O=C1c2ccccc2C(=O)N1Cc1nc2ccccc2c(=O)n1-c1cccnc1`, the IC50 was > 54 µM (inactive).

As to `Cc1nnc(Sc2cc(C(=O)NC3CC3)c3ccccc3n2)s1`, the IC50 is > 54 µM (inactive).

For `O=C1CSC(=S)N1/N=C/c1ccc(O)c(O)c1O`, the IC50 was 1.17 µM.

As for `Nc1c(C(=O)NCC2CCCO2)sc2nc3c(c(-c4ccco4)c12)CC/C3=C\c1ccco1` (configuration not stated), the IC50 was > 54 µM (inactive).

On to `COc1ccc(-c2cc3nc4ccccc4n3c(N)c2C#N)cc1`, for which the half-inhibitory concentration (IC50) was 2.76 µM.

Consider `CN(C(=O)c1ccc(C#N)cc1)c1nnc(-c2cnccn2)s1`, for which the IC50 is > 54 µM (inactive).

Take `C=CCc1ccc(OCCOCCOc2cccc3ccc(C)nc23)c(OC)c1`: the IC50 was > 54 µM (inactive).

In the case of `CNC(=O)CC1C(=O)N(c2ccc(OC)cc2)C(=S)N1NC(=O)c1cccc(F)c1` (configuration not stated), the IC50 is > 54 µM (inactive).

For `O=C(O)c1ccc2ncsc2c1`, the IC50 is 0.52 µM.

Turning to `COC(=O)c1cc2sc(Cl)cc2n1CC(=O)Nc1cccc(SC)c1`, the IC50 is > 54 µM (inactive).

`COCCN1C(=O)C(=O)/C(=C(/O)c2ccc(S(=O)(=O)N3CCOCC3)cc2)C1c1cccc(Cl)c1` (configuration not stated): the IC50 is > 54 µM (inactive).

`CCOc1ccc(N=C2NC(=O)S/C2=C\c2ccc(O)cc2)cc1`: the half-inhibitory concentration (IC50) is 0.84 µM.

Consider `COc1cc(OC)cc(C(=O)N2CCN(Cc3ccccc3C(F)(F)F)CC2)c1`, for which the IC50 entry was “inactive”.

For the compound `C=CCC1(/C=N/O)CCOC(C)(C)C1` (configuration not stated), the IC50 was > 54 µM (inactive).

On to `O=C(CSc1nccc(=O)[nH]1)c1ccccc1Br`, for which the IC50 is > 54 µM (inactive).

Take `O=c1[nH]c(-c2ccccc2Cl)nc2c1sc(=S)n2-c1ccccc1`: the IC50 was > 54 µM (inactive).

As for `COc1ccc(N/C=C2\C(=O)CCc3c2oc2cc(Cl)c(O)c(Cl)c32)cc1`, the 50% inhibitory concentration (IC50) was 0.79 µM.

Take `COc1ccc2[nH]c(=O)c(CNC3CCCCC3)cc2c1`: the IC50 was > 54 µM (inactive).

Regarding `Cc1ccc(-n2c(SCC(=O)NCc3ccco3)nc3sc4c(c3c2=O)CC(C)(C)SC4)cc1`, the IC50 is > 54 µM (inactive).

In the case of `COc1cccc(OC)c1C(=O)Nc1ccccc1C(=O)N1CCOCC1`, the IC50 is > 54 µM (inactive).

Turning to `Cc1cc(C)c2c(c1)C1C=CCC1C(c1ccc(S(=O)(=O)N3CCOCC3)cc1)N2` (configuration not stated), the IC50 is > 54 µM (inactive).

Take `O=C1c2cccc3cc([N+](=O)[O-])cc(c23)C(=O)N1/N=C/c1ccc(O)cc1O`: the concentration for half-maximal inhibition (IC50) is 0.82 µM.

On to `Cc1cccc(C(=O)Nc2ccnc(-c3cccnc3)n2)c1`, for which the IC50 was > 54 µM (inactive).

Take `O=C(O)C1Nc2c(O)cc(Cl)c([N+](=O)[O-])c2C2C=CCC12` (configuration not stated): the half-inhibitory concentration (IC50) was 0.58 µM.

With `CCOc1ccc(-c2ccc(/C=C3/C(=N)N4C(C)=CSC4=NC3=O)o2)c([N+](=O)[O-])c1`, the half-inhibitory concentration (IC50) is 0.83 µM.

For the compound `COc1ccc(C2c3c(C)nn(-c4ccccc4)c3NC(=O)N2c2ccccc2)cc1` (configuration not stated), the IC50 is > 54 µM (inactive).

For the compound `CC(CCC(=O)Nc1nncs1)C(=O)O` (configuration not stated), the IC50 is > 54 µM (inactive).

For the compound `CN(C)S(=O)(=O)c1cccc(NC(=O)c2cc3c(=O)n4ccccc4nc3s2)c1`, the IC50 was > 54 µM (inactive).

`O=S(=O)(NCc1ccccc1)c1cccc(S(=O)(=O)N2CCOCC2)c1`: the IC50 is > 54 µM (inactive).

Consider `CC1(C(=O)NNC(=O)C2CCCCC2)CC1(Cl)Cl` (configuration not stated), for which the IC50 is > 54 µM (inactive).

On to `Oc1ccc(/C=N/Nc2ccnc3cc(Cl)ccc23)c(O)c1`, for which the IC50 is 6.69 µM.

As to `CN(C)S(=O)(=O)c1cccc(-c2nn(-c3ccccc3)cc2/C=C2\SC(=S)NC2=O)c1`, the IC50 is 9.99 µM.

Turning to `c1ccc2c(c1)nnn2-c1ncnc2sc3c(c12)CCCC3`, the IC50 was > 54 µM (inactive).

Regarding `COc1ccc(C(=O)C2CCCN(Cc3cn[nH]c3-c3ccc(F)cc3)C2)cc1OC` (configuration not stated), the IC50 is > 54 µM (inactive).

Consider `Cc1ccc(NC(=S)N2CCN(c3ncccn3)CC2)cc1C`, for which the IC50 was > 54 µM (inactive).

Turning to `O=C(O)/C=C\C(=O)N1CCc2ccccc21`, the IC50 was > 54 µM (inactive).

Turning to `COC(=O)C(CC(C)C)NC(=O)c1ccc(F)cc1` (configuration not stated), the IC50 was > 54 µM (inactive).

Regarding `COCC(=O)Nc1ncc(S(=O)(=O)c2ccc([N+](=O)[O-])cc2)s1`, the IC50 is > 54 µM (inactive).

For the compound `O=[N+]([O-])c1ccc(N/N=C/c2cn(Cc3ccc(F)cc3)c3ccccc23)nc1`, the IC50 is > 54 µM (inactive).

With `Cc1ccc([N+](=O)[O-])cc1-c1ccc(/C=C(\C#N)c2[nH]nc(N)c2C#N)o1`, the 50% inhibitory concentration (IC50) was 3.74 µM.

Turning to `O=C(O)CCCN1C(=O)/C(=C/c2cn(-c3ccccc3)nc2-c2cccs2)SC1=S`, the 50% inhibitory concentration (IC50) is 6.58 µM.

On to `O=C(CSc1nc(-c2ccccc2)cc(C(F)(F)F)n1)N1CCOCC1`, for which the IC50 is > 54 µM (inactive).

On to `CCn1c(C)cc(/C=C2/NC(=O)N(CC(=O)Nc3cccc(C)c3)C2=O)c1C`, for which the IC50 is 3.19 µM.

For `CCOC(=O)c1ccccc1NC(=O)c1nc2nccc(C)n2n1`, the IC50 is > 54 µM (inactive).

For `O=C(NCc1ccco1)c1cccn2c(=O)c3cc4ccccc4cc3nc12`, the IC50 is 0.52 µM.

As to `CC(=O)N(/N=C/c1cccc(C)c1)c1nc(-c2ccc(Br)cc2)cs1`, the IC50 was > 54 µM (inactive).

For the compound `CCOC(=O)c1c2ccc(OCC(=O)N/N=C/c3ccc(C)cc3)cc2n2ccccc12`, the 50% inhibitory concentration (IC50) was 6.23 µM.

For `C=CCn1c(SCC(=O)c2[nH]c(C)c(C(=O)OCC)c2C)nc2scc(-c3ccc(OC)c(OC)c3)c2c1=O`, the IC50 was 0.84 µM.

With `CCOC(=O)c1c(C)oc2c1c(C(c1ccncc1)N1CCOCC1)c(O)c1ccccc12` (configuration not stated), the IC50 is 0.87 µM.

In the case of `CN(C)S(=O)(=O)c1cc(S(=O)(=O)N(C)C)c(Cl)cc1N`, the IC50 is > 54 µM (inactive).

Regarding `CNC(=S)Nc1cc(C)ccc1OC(F)F`, the IC50 is > 54 µM (inactive).

With `CSc1nc(SCCO)c2sc3nc(-c4ccco4)c4c(c3c2n1)CC(C)(C)OC4`, the IC50 was 7.5 µM.

For the compound `N=C1S/C(=C\c2ccc(-c3cccc(Cl)c3)o2)C(=O)N1c1nccs1`, the half-inhibitory concentration (IC50) was 1.05 µM.

Consider `CC(C)(C)CC(=O)O/N=C(\N)c1ccncc1`, for which the IC50 was > 54 µM (inactive).

Consider `Cc1[nH]n2c(=O)c3c(nc2c1-c1ccc(F)cc1)CCCC3`, for which the IC50 is > 54 µM (inactive).

Turning to `Fc1cc(F)c2nc(Nc3nc4cc5c(cc4s3)OCO5)sc2c1`, the IC50 was 0.59 µM.

As for `COc1ccccc1C1CC(c2ccccc2)Nc2ncnn21` (configuration not stated), the IC50 is > 54 µM (inactive).

As for `CCCCN1C(=O)/C(=C/C=C/c2ccco2)C(=O)NC1=S`, the IC50 was 8.35 µM.

Turning to `COc1ccccc1C(=O)NC(=S)NNC(=O)c1sc2ccccc2c1Cl`, the 50% inhibitory concentration (IC50) is 1.7 µM.

Consider `COc1ccc2nc(C)cc(SCC(=O)Nc3c(C)cccc3C)c2c1`, for which the half-inhibitory concentration (IC50) is 10.5 µM.

Take `CCCCN(Cc1cc2ccccc2[nH]c1=O)S(C)(=O)=O`: the IC50 was > 54 µM (inactive).

Consider `CC(/C=C1\SC(=S)N(NS(=O)(=O)c2ccc(C)cc2)C1=O)=C\c1ccccc1`, for which the IC50 was 25 µM.

`C#CCOCCOCCOCCNc1nc(N2CCN(C(=O)[C@H](Cc3cc4ccccc4[nH]3)n3cc([C@@H](N)C(C)CC)nn3)CC2)nc(N2CCN(C(=O)[C@H](CCCCN)n3cc([C@@H](N)CC(C)C)nn3)CC2)n1` (some centres not stated): the IC50 was 16.9 µM.

For the compound `CCN1/C(=C/C=C/c2oc3ccc4ccccc4c3[n+]2CC)Oc2ccc3ccccc3c21`, the half-maximal inhibitory concentration (IC50) is 0.58 µM.

Turning to `Cc1ccc(OCC(=O)NCc2ccco2)c([N+](=O)[O-])n1`, the IC50 is > 54 µM (inactive).

`CCOC(=O)C1CCCN(c2c(N3CCN(c4cccc(Cl)c4)CC3)c(=O)c2=O)C1` (configuration not stated): the IC50 is > 54 µM (inactive).

Turning to `COc1ccc(CCNC(=O)c2ccc(CNS(=O)(=O)c3ccc(C(C)(C)C)cc3)cc2)cc1OC`, the IC50 is > 54 µM (inactive).

For `COc1cc2c(cc1OC)-c1cc(NCc3ccccn3)nc(=O)n1CC2`, the 50% inhibitory concentration (IC50) was 0.55 µM.

`CC12CCC(C(=O)Nc3ccccc3-n3cccc3)(CC1=O)C2(C)C` (configuration not stated): the IC50 was > 54 µM (inactive).

Regarding `CSc1cccc(NC(=O)CN(C)S(=O)(=O)c2ccccc2)c1`, the IC50 was > 54 µM (inactive).

Consider `CCN(CC)CCNC(=O)/C(=C/c1cn(C)c2ccccc12)NC(=O)c1ccc(OC)c(OC)c1`, for which the IC50 is > 54 µM (inactive).

On to `O=C(c1ccccc1)N1CCN(Cc2ccccc2Br)CC1`, for which the IC50 was > 54 µM (inactive).

In the case of `COc1cccc2c1nc(C)c1cc(C)oc12`, the IC50 is > 54 µM (inactive).

On to `COc1cccc(NC(=O)C2c3cc(OC)c(OC)cc3C(=O)N(C)C2c2cccnc2)c1` (configuration not stated), for which the IC50 was > 54 µM (inactive).

For the compound `CCOC(=O)c1ccc(NS(=O)(=O)N2CCCCCC2)cc1`, the IC50 was > 54 µM (inactive).

For `CC1C(c2ccccc2)N(C)CCC12NC(=O)NC2=O` (configuration not stated), the IC50 is > 54 µM (inactive).

Consider `Cc1cc(NS(=O)(=O)c2ccc(NC(NC(=O)C(C(F)(F)F)C(F)(F)F)(C(F)(F)F)C(F)(F)F)cc2)no1`, for which the half-inhibitory concentration (IC50) was 1.62 µM.

Regarding `O=c1/c(=C\c2cc([N+](=O)[O-])cc([N+](=O)[O-])c2O)sc2nc3ccccc3n12`, the half-maximal inhibitory concentration (IC50) was 1.07 µM.

Turning to `CCOC(=O)N1CCN(C(=O)CSc2ccc3nnc(CCNC(=O)c4ccc(OC)cc4)n3n2)CC1`, the IC50 is > 54 µM (inactive).

Consider `CCc1cc(=O)oc2cc3occ(-c4ccc(OC)c(F)c4)c3cc12`, for which the IC50 was > 54 µM (inactive).

As to `Cc1c(C(=O)OCc2ccccc2)[nH]c2c1C(=O)CC(c1ccco1)C2` (configuration not stated), the IC50 is > 54 µM (inactive).
